Measured values: patent US6472348B1, “Pyridone derivatives and herbicides” (Kumiai Chemical Industry Co., Ltd., priority 1996, dated 2002)

Tests used:
[1] = tested on: Diaitaria ciliaris (Di); test: Test Example 4: crop plant selectivity by upland field soil treatment (cotton), herbicidal effects; assay type: in vivo; conditions: dose 6.3 g ai/10 a, evaluated 21st day after application
Experimental: (§1) (Test on Crop Plant Selectivity by Upland Field Soil Treatment)
In a plastic pot (surface area: 600 cm^2) filled with sand, cotton (Go), Diaitaria ciliaris (Di), green foxtail (Se), pale smartweed (Po), slender amaranth (Am), common lambsquarters (Ch) and China jute (Ab) were sown and covered with soil. […] The plants were then cultured in a green house, and the evaluation of the herbicidal effects and phytotoxicity was conducted on the 21st day after the application in accordance with the standards as identified in Table 47. Symbol—represents “not tested”.

[2] = tested on: slender amaranth (Am); test: as above; assay type: in vivo; parameters: scale not given here; conditions: dose 6.3 g ai/10 a, evaluated 21st day after application
Outline: (§2)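 Upland soil treatment: crop and weed seeds in sand pots under a soil cover, compound applied to soil, greenhouse-grown, rated visually 21 d later.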

[3] = tested on: common lambsquarters (Ch); test: as above; assay type: in vivo; parameters: scale not given here; conditions: dose 6.3 g ai/10 a, evaluated 21st day after application
Outline: as §2

[4] = tested on: pale smartweed (Po); test: as above; assay type: in vivo; parameters: scale not given here; conditions: dose 6.3 g ai/10 a, evaluated 21st day after application
Outline: as §2

[5] = tested on: China jute (Ab); test: as above; assay type: in vivo; parameters: scale not given here; conditions: dose 6.3 g ai/10 a, evaluated 21st day after application
Outline: as §2

[6] = tested on: Digitaria ciliaris (Di); test: Test Example 2: herbicidal effects by upland field soil treatment; assay type: in vivo; conditions: 100 g of the active ingredient per 10 ares, evaluated on the 21st day after application;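 note: grade of growth control; 5 = at least 90%; 4 = 70 to 90%; 3 = 50 to 70%; 2 = 30 to 50%; 1 = 10 to 30%; 0 = under 10%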
Source text: (§3) (Test on Herbicidal Effects by Upland Field Soil Treatment)

[7] = tested on: slender amaranth (Am); test: as above; assay type: in vivo; conditions: 100 g of the active ingredient per 10 ares, evaluated on the 21st day after application
Source text: as §3

[8] = tested on: common lambsquarters (Ch); test: as above; assay type: in vivo; conditions: 100 g of the active ingredient per 10 ares, evaluated on the 21st day after application
Source text: as §3

[9] = tested on: rice flatsedge (Ci); test: as above; assay type: in vivo; conditions: 100 g of the active ingredient per 10 ares, evaluated on the 21st day after application
Source text: as §3

[10] = tested on: barnyardgrass (Ec); test: as above; assay type: in vivo; conditions: 100 g of the active ingredient per 10 ares, evaluated on the 21st day after application
Source text: as §3

[11] = tested on: pale smartweed (Po); test: as above; assay type: in vivo; conditions: 100 g of the active ingredient per 10 ares, evaluated on the 21st day after application
Source text: as §3

[12] = tested on: monochoria (Mo); test: Test Example 1: herbicidal effects by paddy field soil treatment; assay type: in vivo; conditions: 100 g of the active ingredient per 10 ares, 21st day after the application, index 0-5 of Table 47;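 note: grade of growth control; 5 = at least 90%; 4 = 70 to 90%; 3 = 50 to 70%; 2 = 30 to 50%; 1 = 10 to 30%; 0 = under 10%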
Outline: (§4)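 Scoring of herbicidal effect came 21 days after application of 100 g active ingredient per 10 ares to flooded (3 cm) paddy-soil pots sown with barnyardgrass, monochoria and bulrush, kept in a greenhouse.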

[13] = tested on: bulrush (Sc); test: as above; assay type: in vivo; conditions: 100 g of the active ingredient per 10 ares, 21st day after the application, index 0-5 of Table 47;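 note: grade of growth control; 5 = at least 90%; 4 = 70 to 90%; 3 = 50 to 70%; 2 = 30 to 50%; 1 = 10 to 30%; 0 = under 10%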
Outline: as §4

[14] = tested on: barnyardgrass (Ec); test: as above; assay type: in vivo; conditions: 100 g of the active ingredient per 10 ares, 21st day after the application, index 0-5 of Table 47
Outline: as §4

[15] = tested on: corn (Ze); test: Test Example 11: crop plant selectivity by upland field foliage treatment (corn), phytotoxicity; conditions: corn; foliage treatment; dose 1.6 g ai/10a; evaluated on 14th day after treatment; index per Table 47
Outline: (§5)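 Corn with pale smartweed, slender amaranth, common lambsquarters and China jute sown in sand-filled pots and grown 2 weeks in a greenhouse before foliage treatment. Herbicidal effect and crop phytotoxicity scored on day 14 after treatment against a rating standard.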

[16] = tested on: slender amaranth (Am); test: Test Example 3: herbicidal effects by upland field foliage treatment; assay type: in vivo; parameters: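 grade of growth control; 5 = at least 90%; 4 = 70 to 90%; 3 = 50 to 70%; 2 = 30 to 50%; 1 = 10 to 30%; 0 = under 10%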; conditions: 100 g active ingredient per 10 ares, evaluated 14th day after treatment
Outline: (§6)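 Using plants cultured for 2 weeks in a greenhouse from seed sown in soil-covered sand (pots 120 cm^2), the compounds were applied to foliage, and weed control was graded by standard criteria 14 days thereafter.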

[17] = tested on: Diaitaria ciliaris (Di); test: as above; assay type: in vivo; parameters: scale not given here; conditions: 100 g active ingredient per 10 ares, evaluated 14th day after treatment
Outline: as §6

[18] = tested on: common lambsquarters (Ch); test: as above; assay type: in vivo; parameters: scale not given here; conditions: 100 g active ingredient per 10 ares, evaluated 14th day after treatment
Outline: as §6

[19] = tested on: rice flatsedge (Ci); test: as above; assay type: in vivo; parameters: scale not given here; conditions: 100 g active ingredient per 10 ares, evaluated 14th day after treatment
Outline: as §6

[20] = tested on: barnyardgrass (Ec); test: as above; assay type: in vivo; parameters: scale not given here; conditions: 100 g active ingredient per 10 ares, evaluated 14th day after treatment
Outline: as §6

[21] = tested on: pale smartweed (Po); test: as above; assay type: in vivo; parameters: scale not given here; conditions: 100 g active ingredient per 10 ares, evaluated 14th day after treatment
Outline: as §6

[22] = tested on: soybean (Gl); test: Test Example 6: crop plant selectivity by upland field soil treatment (soybean), phytotoxicity; assay type: in vivo; parameters: scale not given here; conditions: dose 6.3 g ai/10a, 21st day after application
Outline: (§7)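 Seeds are sown in sand and covered with soil. The soil is treated with test compound. Pots are kept in a greenhouse. Weed control and soybean damage are rated visually 21 days after application.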

[23] = tested on: cotton (Go); test: Test Example 4: crop plant selectivity by upland field soil treatment (cotton), phytotoxicity; assay type: in vivo; parameters: scale not given here; conditions: dose 6.3 g ai/10 a, evaluated 21st day after application
Outline: as §2

[24] = tested on: Diaitaria ciliaris (Di); test: Test Example 6: crop plant selectivity by upland field soil treatment (soybean), herbicidal effects; assay type: in vivo; conditions: dose 6.3 g ai/10a, 21st day after application
Experimental: as §1
(§8) In a plastic pot (surface area: 600 cm^2) filled with sand, soybean (Gl), Diaitaria ciliaris (Di), green foxtail (Se), Johnsongrass (So), pale smartweed (Po), slender amaranth (Am), common lambsquarters (Ch) and China jute (Ab) were sown and covered with soil. […] The plants were then cultured in a green house, and the evaluation of the herbicidal effects and phytotoxicity was conducted on the 21st day after the application in accordance with the standards as identified in Table 47. Symbol—represents “not tested”.

[25] = tested on: Johnsongrass (So); test: as above; assay type: in vivo; conditions: dose 6.3 g ai/10a, 21st day after application
Experimental: as §1, §8

[26] = tested on: slender amaranth (Am); test: Test Example 11: crop plant selectivity by upland field foliage treatment (corn), herbicidal effects; assay type: in vivo; parameters: scale not given here; conditions: slender amaranth; foliage treatment; dose 1.6 g ai/10a; evaluated on 14th day after treatment; index per Table 47
Outline: as §5

[27] = tested on: common lambsquarters (Ch); test: as above; assay type: in vivo; parameters: scale not given here; conditions: common lambsquarters; foliage treatment; dose 1.6 g ai/10a; evaluated on 14th day after treatment; index per Table 47
Outline: as §5

[28] = tested on: pale smartweed (Po); test: as above; assay type: in vivo; parameters: scale not given here; conditions: pale smartweed; foliage treatment; dose 1.6 g ai/10a; evaluated on 14th day after treatment; index per Table 47
Outline: as §5

[29] = tested on: China jute (Ab); test: as above; assay type: in vivo; parameters: scale not given here; conditions: China jute; foliage treatment; dose 1.6 g ai/10a; evaluated on 14th day after treatment; index per Table 47
Outline: as §5

[30] = tested on: slender amaranth (Am); test: Test Example 6: crop plant selectivity by upland field soil treatment (soybean), herbicidal effects; assay type: in vivo; parameters: scale not given here; conditions: dose 6.3 g ai/10a, 21st day after application
Outline: as §7

[31] = tested on: common lambsquarters (Ch); test: as above; assay type: in vivo; parameters: scale not given here; conditions: dose 6.3 g ai/10a, 21st day after application
Outline: as §7

[32] = tested on: pale smartweed (Po); test: as above; assay type: in vivo; parameters: scale not given here; conditions: dose 6.3 g ai/10a, 21st day after application
Outline: as §7

[33] = tested on: China jute (Ab); test: as above; assay type: in vivo; parameters: scale not given here; conditions: dose 6.3 g ai/10a, 21st day after application
Outline: as §7

C#CCOc1cc(-c2cn(C)c(C(F)(F)F)cc2=O)c(F)cc1Cl [Compound 6-9]
Herbicidal effects Di [1]: 5 | Herbicidal effects Am [2]: 5 | Herbicidal effects Ch [3]: 5 | Herbicidal effects Po [4]: 5 | Herbicidal effects Ab [5]: 5 | Herbicidal effects Di [6]: 5 | Herbicidal effects Am [7]: 5 | Herbicidal effects Ch [8]: 5 | Herbicidal effects Ci [9]: 5 | Herbicidal effects Ec [10]: 5 | Herbicidal effects Po [11]: 5 | Herbicidal effects Mo [12]: 5 | Herbicidal effects Sc [13]: 5 | Herbicidal effects Ec [14]: 5 | Phytotoxicity Ze [15]: 1 | Herbicidal effects Am [16]: 5 | Herbicidal effects Di [17]: 5 | Herbicidal effects Ch [18]: 5 | Herbicidal effects Ci [19]: 5 | Herbicidal effects Ec [20]: 5 | Herbicidal effects Po [21]: 5 | Phytotoxicity Gl [22]: 0 | Phytotoxicity Go [23]: 0 | Herbicidal effects Di [24]: 5 | Herbicidal effects So [25]: 5 | Herbicidal effects Am [26]: 5 | Herbicidal effects Ch [27]: 5 | Herbicidal effects Po [28]: 5 | Herbicidal effects Ab [29]: 5 | Herbicidal effects Am [30]: 5 | Herbicidal effects Ch [31]: 5 | Herbicidal effects Po [32]: 5 | Herbicidal effects Ab [33]: 5
